From US9828332B2, “Non-peptide BDNF neurotrophin mimetics” (PHARMATROPHIX, INC., priority 2013, dated 2017)
Several values for one entry are separate records, joined by “and”; a condition that tells them apart may be missing. Equal entries are not always repeated. Where two headings read alike, the source gives them in different places.

What was measured:
[1] = Observations and adverse reactions after intraperitoneal administration; format: in vivo, CD-1 mice; settings: IP 50 mg/kg in sterile water for injection
Method: (§1) In this study, the brain-to-plasma ratio of Compound 2 and Compound 3 was evaluated after intraperitoneal dosing in fasted male CD-1 mice. Test compounds were dosed at 50 mg/kg in sterile water for injection. Plasma and brain homogenate levels were determined at 1 and 3 hours post dose by LC-MS/MS.

[2] = Determination of the brain-to-plasma ratio after intraperitoneal administration (plasma and brain homogenate levels by LC-MS/MS); format: in vivo, male CD-1 mice; set-up: Brain Tissue Homogen. Conc / Brain Tissue Conc: unit not given here
Method: as §1
The dosing solution was diluted in triplicate into mouse plasma and analyzed in parallel with the study samples. The nominal dosing solution concentration was used in all calculations. All concentrations are expressed as […] of the free drug. All data are expressed as ng/mL (equivalent to ng/g for calculation of brain:plasma ratio) of the free drug. Samples that were below the limit of quantitation were not used in the calculation of averages.
Brain-to-plasma ratios were determined by dividing the brain concentration in ng/g by the plasma concentration in ng/g.
Brain samples were homogenizcd with a Virsonic 100 ultrasonic homogenizer. Each brain sample was first weighed, and then an appropriate volume of 20:80 methanol:water was added to make a 4 mL/1 gram sample. Samples were then homogenized on ice, and stored frozen until analysis.
Standards samples were prepared in either CD-1 Mouse plasma containing K2EDTA as an anticoagulant or CD-1 mouse brain homogenate. Working solutions (200 μg/mL and/or 20 μg/mL for each test compound) was prepared in 50:50 ACN:water. Then, a nine-point calibration curve was prepared at concentrations of 2000, 1500, 1000, 500, 100, 50, 20, 10, and 5 ng/mL of each test compound by serial dilution; or for a high-sensitivity method, another nine point calibration curve was prepared at concentrations of 200, 150, 100, 50, 10, 5, 2, 1, and 0.5 ng/mL of each test compound by serial dilution. Standard samples were treated identically to the study samples.
Plasma and brain homogenate samples were extracted via acetonitrile precipitation on a Tomtec Quadra 96-Model 320 liquid handling system in a 96-well plate format.

[3] = IP 50 mg/kg, 1.0 hr post dose, individual mouse, 50 mg/kg
[4] = IP 50 mg/kg, 3.0 hr post dose, individual mouse, 50 mg/kg
[5] = male, CD-1, mouse, brain/plasma, ip, 50 mg/kg, 1 hour post dose, mean of mice, read-out: Average B:P Ratio

Structure (SMILES) | adverse effects after intraperitoneal administration [1] | B:P Ratio [2, 3] | Brain Tissue Conc [2, 3] | Plasma Conc [2, 3] | Brain Tissue Homogen. Conc ([2]; IP 50 mg/kg, 3.0 hr post dose, individual mouse) | Plasma Conc [2, 4] | concentration at 3 h ([2]; male, CD-1, mouse, brain, ip, 50 mg/kg, 3 hours post dose, read-out: brain tissue concentrations (BLOQ)) [ng/mL] | Kp at 1 h [2, 5] | Average B:P Ratio ([2]; IP 50 mg/kg, 1 hour post dose, mean of mice, 50 mg/kg) | B:P Ratio ([2]; IP 50 mg/kg, 1.0 hr post dose, individual mouse) | Average B:P Ratio ([2]; IP 50 mg/kg, 3 hours post dose, mean of mice, 50 mg/kg) | B:P Ratio [2, 4] | Kp at 1 h ([2]; male, CD-1, mouse, brain/plasma, ip, 50 mg/kg, 1.0 hr post dose, individual mouse, read-out: B:P Ratio) | Kp at 3 h ([2]; male, CD-1, mouse, brain/plasma, ip, 50 mg/kg, 3 hours post dose, mean of mice, read-out: Average B:P Ratio) | concentration at 1 h ([2]; male, CD-1, mouse, plasma, ip, 50 mg/kg, 1.0 hr post dose, individual mouse, read-out: Plasma Conc) [ng/mL]
COCCNC(=O)c1cc(C(=O)NCCOC)cc(C(=O)NCCOC)c1 [Compound 2, N^1,N^3,N^5-tris(2-methoxyethyl)benzene-1,3,5-tricarboxamide] | No adverse effects were observed | 0.01 and 0.1 | 4.19 | 675 ng/mL and 30.7 ng/mL and 41.8 ng/mL | BLQ | 3.13 ng/mL and 2.22 ng/mL and 16.5 ng/mL | < 0.5 | 0.056 |  |  |  |  |  |  | 
COCCN(C)C(=O)c1cc(C(=O)N(C)CCOC)cc(C(=O)N(C)CCOC)c1 [Compound 3, N^1,N^3,N^5-tris(2-methoxyethyl)-N^1,N^3,N^5-trimethylbenzene-1,3,5-tricarboxamide] | No adverse effects were observed |  |  | 3010 ng/mL and 2440 ng/mL |  | 17.2 ng/mL and 36 ng/mL and 71.7 ng/mL |  | 0.038 ± 0.004 | 0.038 | 0.04 | 0.525 | 0.78 and 0.24 and 0.55 | 0.04 | 0.525 ± 0.275 | 2770
